Columns and labels:
Cavia porcellus = species on record: Cavia porcellus; assay: Inhibition of HCN4 in guinea pig single sinoatrial node assessed as reduction in hyperpolarization activated current at 10 uM at holding potential of -120 mV by patch clamp assay relative to control
[1] = tested on: Cardiac muscle of left ventricle; assay: (§1) Effect on cardiac electrophysiological profile in Mongrel perfused dog heart left ventricular muscle stimulated at basic cycle length of 1000 milliseconds assessed as action potential time duration at 90% of repolarization at 10 uM measured after 25 mins by glass capillary microelectrode based electrophysiology assay (reference value: 212.5 +/- 16.25 milliseconds); format: functional, Canis lupus familiaris
[2] = target: T1, Potassium/sodium hyperpolarization-activated cyclic nucleotide-gated channel 4 (Homo sapiens, UniProt Q9Y3Q4); assay: Inhibition of human HCN4 expressed in HEK293 cells assessed as reduction in hyperpolarization activated current at holding potential of -80 mV by patch clamp assay; format: cell-based
T1 sequence (Q9Y3Q4 whole entry): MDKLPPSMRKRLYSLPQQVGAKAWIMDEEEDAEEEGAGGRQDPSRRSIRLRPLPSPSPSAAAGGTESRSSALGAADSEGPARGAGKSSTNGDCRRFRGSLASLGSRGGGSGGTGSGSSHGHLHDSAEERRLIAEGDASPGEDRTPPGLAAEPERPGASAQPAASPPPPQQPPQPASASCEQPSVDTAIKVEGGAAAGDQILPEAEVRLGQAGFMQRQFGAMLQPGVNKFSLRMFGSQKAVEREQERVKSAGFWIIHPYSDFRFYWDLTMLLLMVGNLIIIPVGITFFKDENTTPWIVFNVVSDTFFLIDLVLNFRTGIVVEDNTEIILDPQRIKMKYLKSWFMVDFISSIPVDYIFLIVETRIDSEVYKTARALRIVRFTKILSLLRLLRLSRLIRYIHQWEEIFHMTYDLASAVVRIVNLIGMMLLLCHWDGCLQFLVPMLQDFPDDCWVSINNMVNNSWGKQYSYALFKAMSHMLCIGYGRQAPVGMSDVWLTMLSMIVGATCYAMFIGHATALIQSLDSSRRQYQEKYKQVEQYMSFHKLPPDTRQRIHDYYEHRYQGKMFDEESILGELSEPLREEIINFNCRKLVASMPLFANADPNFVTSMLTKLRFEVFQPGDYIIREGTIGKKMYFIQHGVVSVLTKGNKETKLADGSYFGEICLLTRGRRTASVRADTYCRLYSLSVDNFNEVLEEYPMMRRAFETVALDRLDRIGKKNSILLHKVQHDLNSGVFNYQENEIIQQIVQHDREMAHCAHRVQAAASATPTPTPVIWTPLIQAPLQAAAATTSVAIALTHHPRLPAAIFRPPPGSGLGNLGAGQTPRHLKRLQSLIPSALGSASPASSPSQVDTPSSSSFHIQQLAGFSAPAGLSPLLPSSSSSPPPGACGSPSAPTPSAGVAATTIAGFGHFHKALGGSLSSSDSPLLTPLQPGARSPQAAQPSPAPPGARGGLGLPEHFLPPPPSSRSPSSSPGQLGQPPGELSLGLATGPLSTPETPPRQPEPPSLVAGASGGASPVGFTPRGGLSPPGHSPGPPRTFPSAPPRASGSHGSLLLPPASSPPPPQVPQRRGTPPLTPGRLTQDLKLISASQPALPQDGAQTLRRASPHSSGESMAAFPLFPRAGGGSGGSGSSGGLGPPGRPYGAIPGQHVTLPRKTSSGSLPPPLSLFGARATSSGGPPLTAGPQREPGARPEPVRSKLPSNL

[3] = tested on: Cardiac muscle of left ventricle; assay: as §1, with “25%” for “90%”, “131.7” for “212.5”, “13.1” for “16.25”; format: functional, Canis lupus familiaris
[4] = tested on: Cardiac muscle of left ventricle; assay: as §1, with “10%” for “90%”, “69.9” for “212.5”, “10.84” for “16.25”; format: functional, Canis lupus familiaris
[5] = tested on: Cardiac muscle of left ventricle; assay: as §1, with “at 25%” for “at 90%”, “at 1” for “at 10”, “value: 131.7” for “value: 212.5”, “+/- 13.1” for “+/- 16.25”; format: functional, Canis lupus familiaris
[6] = tested on: Cardiac muscle of left ventricle; assay: as §1, with “75%” for “90%”, “199.7” for “212.5”, “16.87” for “16.25”; format: functional, Canis lupus familiaris
[7] = tested on: Cardiac muscle of left ventricle; assay: as §1, with “at 50%” for “at 90%”, “at 1” for “at 10”, “value: 176” for “value: 212.5”, “+/- 16.36” for “+/- 16.25”; format: functional, Canis lupus familiaris
[8] = tested on: Cardiac muscle of left ventricle; assay: as §1, with “conduction” for “action potential”, “time” for “time duration at 90% of repolarization”, “4.8” for “212.5”, “0.60” for “16.25”; format: functional, Canis lupus familiaris

- inhibition (Cavia porcellus): 67%
- EC50 [2]: 3.98 µM
SMILES: COc1ccc(CCN(C)[C@@H]2CCC[C@H](N3CCc4cc(OC)c(OC)cc4CC3=O)C2)cc1OC (racemic)
- Time [1]: 220.2 ms
- Time [3]: 125.1 ms
- Time [4]: 55.7 ms
- Time [5]: 121.6 ms
- Time [6]: 206 ms
- Time [7]: 168.3 ms
- Time [8]: 5 ms
